Results: ChEMBL document CHEMBL3085665, “Gallic acid is the major component of grape seed extract that inhibits amyloid fibril formation” (Bioorg Med Chem Lett, 2013)
Active and inactive are the calls of the source. No cut-off for these calls is given here.

How the values were obtained:
Homo sapiens [1] = organism: Homo sapiens; assay: Inhibition of reduced carboxymethylated-kappa-casein (unknown origin) conversion to amyloid fibrils at 0.1:1 to 2:1 compound to protein molar ratio after 1000 mins by thioflavin T fluorescence assay
Homo sapiens [2] = organism: Homo sapiens; assay: Inhibition of reduced carboxymethylated-kappa-casein (unknown origin) conversion to amyloid fibrils at 1:2 protein to compound molar ratio after 1000 mins by thioflavin T fluorescence assay relative to control
Homo sapiens [3] = organism: Homo sapiens; assay: Inhibition of reduced carboxymethylated-kappa-casein (unknown origin) conversion to amyloid fibrils at 1:1 protein to compound molar ratio after 1000 mins by thioflavin T fluorescence assay relative to control
[4] = target: Amyloid-beta precursor protein (Homo sapiens) (UniProt P05067); assay: Inhibition of amyloid beta (1 to 40) (unknown origin) aggregation at 1:0.1 to 1:2 protein to compound molar ratio up to 10 hrs by thioflavin T fluorescence assay
Sequence of Amyloid-beta precursor protein (Homo sapiens) (P05067 whole entry): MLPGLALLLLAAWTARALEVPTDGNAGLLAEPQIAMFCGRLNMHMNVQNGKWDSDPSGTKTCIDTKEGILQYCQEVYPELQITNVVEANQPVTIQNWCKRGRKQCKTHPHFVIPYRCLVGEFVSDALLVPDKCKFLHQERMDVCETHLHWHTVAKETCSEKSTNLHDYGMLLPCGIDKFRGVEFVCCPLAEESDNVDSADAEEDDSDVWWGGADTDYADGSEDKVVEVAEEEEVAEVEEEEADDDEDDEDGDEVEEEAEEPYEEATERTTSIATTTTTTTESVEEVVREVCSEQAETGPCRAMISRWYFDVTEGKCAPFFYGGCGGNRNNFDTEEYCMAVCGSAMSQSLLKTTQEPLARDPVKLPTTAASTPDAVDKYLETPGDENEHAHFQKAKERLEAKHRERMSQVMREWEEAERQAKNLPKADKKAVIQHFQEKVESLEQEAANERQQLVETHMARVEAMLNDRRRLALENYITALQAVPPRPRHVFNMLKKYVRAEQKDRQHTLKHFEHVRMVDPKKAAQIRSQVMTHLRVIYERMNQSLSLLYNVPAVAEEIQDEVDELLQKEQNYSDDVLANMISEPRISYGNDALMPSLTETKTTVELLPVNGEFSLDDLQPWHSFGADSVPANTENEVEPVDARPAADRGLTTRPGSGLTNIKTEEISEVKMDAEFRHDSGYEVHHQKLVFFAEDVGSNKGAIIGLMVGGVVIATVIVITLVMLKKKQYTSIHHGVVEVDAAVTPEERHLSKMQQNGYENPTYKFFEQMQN

[5] = Reduction in RCM-kappa-casein-induced cytotoxicity against rat PC12 cells after 48 hrs by MTT assay; format: functional, cell-based; settings: PC-12
[6] = target: Amyloid-beta precursor protein (Homo sapiens) (UniProt P05067); assay: Inhibition of amyloid beta (1 to 40) (unknown origin) aggregation at 1:0.1 to 1:2 protein to compound molar ratio after 20 hrs by transmission electron microscopic analysis
PC-12 = assay: Effect on RCM-kappa-casein-induced cytotoxicity against rat PC12 cells at 1:0.1 to 1:0.5 protein to compound molar ratio after 48 hrs by MTT assay; format: functional, cell-based
Homo sapiens [7] = organism: Homo sapiens; assay: Inhibition of reduced carboxymethylated-kappa-casein (unknown origin) conversion to amyloid fibrils at 1:0.1 protein to compound molar ratio after 1000 mins by thioflavin T fluorescence assay relative to control
Homo sapiens [8] = organism: Homo sapiens; assay: Binding affinity to reduced carboxymethylated-kappa-casein (unknown origin) at 1:2 protein to compound molar ratio after 20 hrs by far-UV-CD spectroscopic analysis
Homo sapiens [9] = organism: Homo sapiens; assay: Inhibition of reduced carboxymethylated-kappa-casein (unknown origin) conversion to amyloid fibrils assessed as decrease in number of long, unbranched and mature amyloid fibrils at 1:2 protein to compound molar ratio after 1000 mins by transmission electron microscopic analysis
[10] = (§1) Inhibition of reduced carboxymethylated-kappa-casein (unknown origin) conversion to amyloid fibrils after 1000 mins by thioflavin T fluorescence assay; set-up: species or system Homo sapiens
Homo sapiens [11] = organism: Homo sapiens; assay: as §1
[12] = Effect on RCM-kappa-casein-induced cytotoxicity against rat PC12 cells assessed as increase in cell viability at 1:2 protein to compound molar ratio after 48 hrs by MTT assay relative to control; format: functional, PC-12
Homo sapiens [13] = organism: Homo sapiens; assay: Inhibition of reduced carboxymethylated-kappa-casein (unknown origin) conversion to amyloid fibrils at 1:0.5 protein to compound molar ratio after 1000 mins by thioflavin T fluorescence assay relative to control
[14] = Cytotoxicity against rat PC12 cells assessed as cell viability at 5 uM after 48 hrs by MTT assay; format: cell-based; settings: pc-12, 48 h

## Oc1cc(O)c2c(c1)OC(c1ccc(O)c(O)c1)C(O)C2 (configuration not stated)
Homo sapiens [1]
  inhibition: inactive

## C[C@@H]1O[C@@H](OC[C@H]2O[C@@H](Oc3cc4c(O)cc(O)cc4[o+]c3-c3ccc(O)c(O)c3)[C@H](O)[C@@H](O)[C@@H]2O)[C@H](O)[C@H](O)[C@H]1O
Homo sapiens [2]
  inhibition: 54%

## Oc1cc(O)c2c(c1)O[C@H](c1ccc(O)c(O)c1)[C@H](O)C2
Homo sapiens [1]
  inhibition: inactive

## O=C(O)c1cc(O)c(O)c(O)c1 [GALLIC ACID]
Homo sapiens [3]
  inhibition: 87%
[4]
  inhibition: Active
Homo sapiens [2]
  inhibition: 98%
[5]
  Activity: Dose-dependent effect
[6]
  inhibition: Active
PC-12
  Activity: inactive
Homo sapiens [7]
  inhibition: 3%
Homo sapiens [8]
  Activity: Active
Homo sapiens [9]
  inhibition: Active
[10]
  IC50: 7.7 µM
Homo sapiens [11]
  inhibition: Dose-dependent effect
[12]
  Activity: 88%
Homo sapiens [13]
  inhibition: 54%
[14]
  Activity: Non-toxic
